Test results published in US20260274892A1, “MACROCYCLIC BROAD SPECTRUM ANTIBIOTICS” (RQx Pharmaceuticals, Inc., priority 2017, published 2026).

Assays:
[1] = tested on: Escherichia coli ATCC 25922; assay: Minimum inhibitory concentration (MIC), CLSI broth micro-dilution, E. coli; format: cell-based; conditions: Table 6, cation adjusted Mueller Hinton Broth + 0.002% Tween-80, 35° C.
How it was run: (§1)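 Antibacterial potency is measured as MIC by the CLSI broth dilution method. Bacteria at OD600 0.0005 in Tween-80-supplemented cation-adjusted Mueller Hinton broth face ten twofold compound dilutions for 22 h at 35° C.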

[2] = tested on: Methicillin Resistant Staphylococcus aureus strain USA 200; assay: Minimum inhibitory concentration (MIC), CLSI broth micro-dilution, S. aureus; format: cell-based; conditions: Table 6, MRSA USA 200, cation adjusted Mueller Hinton Broth + 0.002% Tween-80, 35° C., 22 hours
How it was run: as §1

[3] = Escherichia coli, ATCC25922, 22 h
[4] = Staphylococcus aureus, MRSA / USA200

| Compound | MIC [1, 3] [µM] | MIC [2, 4] [µM] | MIC ([1]; 22 hours) [µM] | MIC [2] [µM] |
| --- | --- | --- | --- | --- |
| CCC[C@H](NC(=O)c1c(C)nc(-c2ccc(C(C)(C)C)cc2)nc1C)C(=O)N[C@@H](CCN)C(=O)N(C)[C@@H]1C(=O)N[C@@H](C)C(=O)N[C@H](C(=O)NCC#N)Cc2ccc(OCCN)c(c2)-c2cc1ccc2OCCN (racemic) [Compound 469, rac-(8S,11S,14S)-3,18-bis(2-aminoethoxy)-N-(cyanomethyl)-11-methyl-14-[methyl-[rac-(2S)-4-amino-2-[[rac-(2S)-2-[[2-(4-tert-butylphenyl)-4,6-dimethyl-pyrimidine-5-carbonyl]amino]pentanoyl]amino]butanoyl]amino]-10,13-dioxo-9,12-diazatricyclo[13.3.1.12,6]icosa-1(18),2(20),3,5,15(19),16-hexaene-8-carboxamide] | 6 | 0.13 | – | – |
| Cc1nc(-c2ccc(C(C)(C)C)cc2)nc(C)c1C(=O)NCC(=O)N[C@@H](CCN)C(=O)N(C)[C@@H]1C(=O)N[C@@H](C)C(=O)N[C@H](C(=O)NCC#N)Cc2ccc(OCCN)c(c2)-c2cc1ccc2OCCN (racemic) [Compound 470, rac-(8S,11S,14S)-3,18-bis(2-aminoethoxy)-N-(cyanomethyl)-11-methyl-14-[methyl-[rac-(2S)-4-amino-2-[[2-[[2-(4-tert-butylphenyl)-4,6-dimethyl-pyrimidine-5-carbonyl]amino]acetyl]amino]butanoyl]amino]-10,13-dioxo-9,12-diazatricyclo[13.3.1.12,6]icosa-1(18),2(20),3,5,15(19),16-hexaene-8-carboxamide] | 4 | 0.047 | – | – |
| CCCCCCc1ccc(C(=O)N[C@@H](CCN)C(=O)N[C@@H]2C(=O)N[C@@H](C)C(=O)N[C@H](C(=O)NCC#N)Cc3ccc(O)c(c3)-c3cc2ccc3O)c(C)c1 (racemic) [Compound 471, rac-(8S,11S,14S)-N-(cyanomethyl)-3,18-dihydroxy-11-methyl-10,13-dioxo-14-[[rac-(2S)-4-amino-2-[(4-hexyl-2-methyl-benzoyl)amino]butanoyl]amino]-9,12-diazatricyclo[13.3.1.12,6]icosa-1(18),2(20),3,5,15(19),16-hexaene-8-carboxamide] | 5.1 | 0.04 | – | – |
| Cc1nc(-c2ccc(C(C)(C)C)cc2)ncc1C(=O)N[C@@H](CCN)C(=O)N[C@@H]1C(=O)N[C@@H](C)C(=O)N[C@H](C(=O)NCC#N)Cc2ccc(OCCN)c(c2)-c2cc1ccc2OCCN (racemic) [Compound 472, rac-(8S,11S,14S)-3,18-bis(2-aminoethoxy)-N-(cyanomethyl)-11-methyl-10,13-dioxo-14-[[rac-(2S)-4-amino-2-[[2-(4-tert-butylphenyl)-4-methyl-pyrimidine-5-carbonyl]amino]butanoyl]amino]-9,12-diazatricyclo[13.3.1.12,6]icosa-1(18),2(20),3,5,15(19),16-hexaene-8-carboxamide] | 0.11 | 0.0085 | – | – |
| CCCCCCc1ccc(C(=O)N[C@@H](CCN)C(=O)N(CC)[C@@H]2C(=O)N[C@@H](C)C(=O)N[C@H](C(=O)NCC#N)Cc3ccc(O)c(c3)-c3cc2ccc3O)c(C)c1 (racemic) [Compound 473, rac-(8S,11S,14S)-N-(cyanomethyl)-14-[ethyl-[rac-(2S)-4-amino-2-[(4-hexyl-2-methyl-benzoyl)amino]butanoyl]amino]-3,18-dihydroxy-11-methyl-10,13-dioxo-9,12-diazatricyclo[13.3.1.12,6]icosa-1(18),2(20),3,5,15(19),16-hexaene-8-carboxamide] | 4.9 | 0.31 | – | – |
| CCCCCCc1ccc(C(=O)N[C@@H](CCN)C(=O)N(CCN)[C@@H]2C(=O)N[C@@H](C)C(=O)N[C@H](C(=O)NCC#N)Cc3ccc(O)c(c3)-c3cc2ccc3O)c(C)c1 (racemic) [Compound 474, rac-(8S,11S,14S)-14-[2-aminoethyl-[rac-(2S)-4-amino-2-[(4-hexyl-2-methyl-benzoyl)amino]butanoyl]amino]-N-(cyanomethyl)-3,18-dihydroxy-11-methyl-10,13-dioxo-9,12-diazatricyclo[13.3.1.12,6]icosa-1(18),2(20),3,5,15(19),16-hexaene-8-carboxamide] | 4.8 | 0.11 | – | – |
| CCCCCCc1ccc(C(=O)N[C@@H](CCN)C(=O)N(CCO)[C@@H]2C(=O)N[C@@H](C)C(=O)N[C@H](C(=O)NCC#N)Cc3ccc(O)c(c3)-c3cc2ccc3O)c(C)c1 (racemic) [Compound 475, rac-(8S,11S,14S)-N-(cyanomethyl)-3,18-dihydroxy-14-[2-hydroxyethyl-[rac-(2S)-4-amino-2-[(4-hexyl-2-methyl-benzoyl)amino]butanoyl]amino]-11-methyl-10,13-dioxo-9,12-diazatricyclo[13.3.1.12,6]icosa-1(18),2(20),3,5,15(19),16-hexaene-8-carboxamide] | 4.8 | 0.6 | – | – |
| Cc1nc(-c2ccc(C(C)(C)C)cc2)ncc1C(=O)N[C@@H](CCN)C(=O)N(C)[C@@H]1C(=O)NCC(=O)N[C@H](C(=O)NCC#N)Cc2ccc(OCCN)c(c2)-c2cc1ccc2OCCN (racemic) [Compound 476, rac-(8S,14S)-3,18-bis(2-aminoethoxy)-N-(cyanomethyl)-14-[methyl-[rac-(2S)-4-amino-2-[[2-(4-tert-butylphenyl)-4-methyl-pyrimidine-5-carbonyl]amino]butanoyl]amino]-10,13-dioxo-9,12-diazatricyclo[13.3.1.12,6]icosa-1(18),2(20),3,5,15(19),16-hexaene-8-carboxamide] | 1.1 | 0.025 | – | – |
| Cc1nc(-c2ccc(C(C)(C)C)cc2)ncc1C(=O)N[C@@H](CCN)C(=O)N(C)[C@@H]1C(=O)N[C@@H](CO)C(=O)N[C@H](C(=O)NCC#N)Cc2ccc(OCCN)c(c2)-c2cc1ccc2OCCN (racemic) [Compound 477, rac-(8S,11S,14S)-3,18-bis(2-aminoethoxy)-N-(cyanomethyl)-11-(hydroxymethyl)-14-[methyl-[rac-(2S)-4-amino-2-[[2-(4-tert-butylphenyl)-4-methyl-pyrimidine-5-carbonyl]amino]butanoyl]amino]-10,13-dioxo-9,12-diazatricyclo[13.3.1.12,6]icosa-1(18),2(20),3,5,15(19),16-hexaene-8-carboxamide] | 3.2 | 0.26 | – | – |
| CCCCCCCc1ccc(C(=O)N[C@@H](CCN)C(=O)N(C)[C@@H]2C(=O)N[C@@H](C3CC3)C(=O)N[C@H](C(=O)NCC#N)Cc3ccc(OCCN)c(c3)-c3cc2ccc3OCCN)c(C)c1 (racemic) [Compound 478, rac-(8S,11S,14S)-3,18-bis(2-aminoethoxy)-N-(cyanomethyl)-11-cyclopropyl-14-[methyl-[rac-(2S)-4-amino-2-[(4-heptyl-2-methyl-benzoyl)amino]butanoyl]amino]-10,13-dioxo-9,12-diazatricyclo[13.3.1.12,6]icosa-1(18),2(20),3,5,15(19),16-hexaene-8-carboxamide] | 1.1 | 0.071 | – | – |
| CCCCCCCc1ccc(C(=O)N[C@@H](CCN)C(=O)N(C)[C@@H]2C(=O)N[C@@H](CC)C(=O)N[C@H](C(=O)NCC#N)Cc3ccc(OCCN)c(c3)-c3cc2ccc3OCCN)c(C)c1 (racemic) [Compound 479, rac-(8S,11S,14S)-3,18-bis(2-aminoethoxy)-N-(cyanomethyl)-11-ethyl-14-[methyl-[rac-(2S)-4-amino-2-[(4-heptyl-2-methyl-benzoyl)amino]butanoyl]amino]-10,13-dioxo-9,12-diazatricyclo[13.3.1.12,6]icosa-1(18),2(20),3,5,15(19),16-hexaene-8-carboxamide] | 0.77 | 0.027 | – | – |
| CCCCCCCc1ccc(C(=O)N[C@@H](CCN)C(=O)N[C@@H]2C(=O)N[C@@H](CC)C(=O)N[C@H](C(=O)NCC#N)Cc3ccc(OCCN)c(c3)-c3cc2ccc3OCCN)c(C)c1 (racemic) [Compound 480, rac-(8S,11S,14S)-3,18-bis(2-aminoethoxy)-N-(cyanomethyl)-11-ethyl-10,13-dioxo-14-[[rac-(2S)-4-amino-2-[(4-heptyl-2-methyl-benzoyl)amino]butanoyl]amino]-9,12-diazatricyclo[13.3.1.12,6]icosa-1(18),2(20),3,5,15(19),16-hexaene-8-carboxamide] | 1.6 | 0.061 | – | – |
| CCCCCCCCCCCCCC(=O)N1C[C@H](N)CC1C(=O)N(C)[C@@H]1C(=O)N[C@@H](C)C(=O)N[C@H](C(=O)NCC#N)Cc2ccc(OCCN)c(c2)-c2cc1ccc2OCCN (mixture of isomers) [Compound 482, rac-(8S,11S,14S)-3,18-bis(2-aminoethoxy)-14-[(4-amino-1-tetradecanoyl-pyrrolidine-2-carbonyl)-methyl-amino]-N-(cyanomethyl)-11-methyl-10,13-dioxo-9,12-diazatricyclo[13.3.1.12,6]icosa-1(18),2(20),3,5,15(19),16-hexaene-8-carboxamide] | 0.24 | 0.036 | – | – |
| CCCCCCCCCCCCCC(=O)N1C[C@H](N)CC1C(=O)N(C)[C@@H]1C(=O)N[C@@H](C)C(=O)N[C@H](C(=O)NCC#N)Cc2ccc(OCCN)c(c2)-c2cc1ccc2OCCN (mixture of isomers) [Compound 483, rac-(8S,11S,14S)-3,18-bis(2-aminoethoxy)-14-[(4-amino-1-tetradecanoyl-pyrrolidine-2-carbonyl)-methyl-amino]-N-(cyanomethyl)-11-methyl-10,13-dioxo-9,12-diazatricyclo[13.3.1.12,6]icosa-1(18),2(20),3,5,15(19),16-hexaene-8-carboxamide] | – | – | 0.29 | 0.036 |
